Here are results for three molecules from article PMC9951879, “Synthesis of New Shogaol Analogues as NRF2 Activators and Evaluation of Their Anti-Inflammatory Activity, Modes of Action and Metabolic Stability” (Antioxidants, 2023).

Where two headings read alike, the source gives them in different places.

By viability is commonly meant a read-out of living cells in per cent, often relative to untreated cells. As a reminder, the IC50 is the point on the concentration scale where inhibition reaches its midpoint. As a reminder, the half-life is the time needed for the level to fall by half in the phase considered. The inhibition is the percentage by which the read-out fell short of the control.

Data set [1] in a line: Vybrant MTT cytotoxicity assay in Hepa-1c1c7 cells. The data set is classed as cell-based. Particulars: mouse, read-out: cell viability. How it is done: The safe dose of the test compounds on murine hepatoma (Hepa1c1c-7) and mouse microglial cells (BV-2) was assessed by determining their cytotoxicity using Vybrant® MTT Cell Proliferation Assay Kit (Thermo Fisher Scientific, USA) following the manufacturer’s protocol. In the case of BV-2 cells, the cytotoxicity of the test compounds was assessed together with E. coli lipopolysaccharide (LPSEc), 200 ng/mL. The cell density was 5 × 10^5 cells/well (in a 96-well plate), and they were preincubated for 24 h. The test compounds (10, 5, 2.5, 1.25, and 0.625 μM) were then added to each well (in triplicate) and incubated for another 24 h. The solution’s absorbance was measured using Spectramax (Molecular Devices, San Jose, California, USA) M3 microplate reader. The cell viability was calculated using the following formula, and the results are presented as mean ± SD. Percent cell viability %=Atreated cells−Ablank /Auntreated cells−Ablank×100%
Background: Tetrazolium dyes change colour on reduction, which living cells bring about.

The subject of the next data set is IL-1β. The data set can be described thus: IL-1β ELISA in LPSEc-stimulated BV-2 cells. The data set is classed as cell-based, mouse. Conditions: LPSEc 200 ng/mL; for IL-1β level: 1 μM; for inhibition at 1 µM: Mus musculus, BV-2, 1 μM, read-out: percentage of IL-1β inhibition. How it is done: (§1) The anti-inflammatory activity of the STCs was determined in E. coli lipopolysaccharide (LPSEc; Sigma Aldrich, USA)-induced inflammation in NRF2-proficient and NRF2 siRNA-transfected mouse microglial (BV-2) cells. The NRF2 was silenced in BV-2 cells using NRF2 siRNA (Santa Cruz Biotechnology, Dallas, TX, USA) in Opti-MEM transfection medium (Thermo Fisher Scientific, USA) using Lipofectamine^TM LTX reagent with PLUS^TM reagent (Thermo Fisher Scientific, USA) following the manufacturer’s protocol and reported method. The cells (5 × 10^5 cells/well) were allowed to form a monolayer by incubating them for 24 h and then adding LPSEc (200 ng/mL) for 4 h. The STCs (1 µM) were then added and incubated for another 20 h. The nitric oxide (NO) level in cell supernatant was determined using the Griess reagent kit (Thermo Fisher Scientific, USA). The levels of proinflammatory cytokines (IL-1β, IL-6, IFN-γ, and TNF-α) in cell supernatant solutions were determined using commercially available ELISA kits (Abcam, Cambridge, UK). The cell pellets were lysed using Cell Lysis buffer (Thermo Fisher Scientific, Waltham, MA, USA) following the manufacturer’s instructions. The supernatant solution in the wells was replaced with PBS, and cells were detached by scraping, washed with PBS, and centrifuged to collect the cell pellet. The cell pellet was lysed on ice in a cell lysis buffer for half an hour, vortexing at regular intervals. The cell lysate was centrifuged at 15,000 rpm for 15 min at 4 °C. The clear lysate was stored at −80 °C until further use. The protein concentration was determined using Bradford’s assay kit (Thermo Fisher Scientific, USA) following the manufacturer’s instructions. The expression of COX-2, NF-κB p65, NRF2, and HO-1 in cell lysates was determined using commercially available ELISA kits (Abcam, St, Louis, Missouri, USA) following the manufacturer’s protocol. In addition, the thiol content was determined using a thiol quantification assay kit (Abcam, USA).
(In general: ELISA stands for enzyme-linked immunosorbent assay.)

Another data set relates to TNF-α. In words: TNF-α ELISA in LPSEc-stimulated BV-2 cells. The class given is cell-based, mouse. Particulars: LPSEc 200 ng/mL; for inhibition at 1 µM: Mus musculus, BV-2, 1 μM, read-out: percentage of TNF-α inhibition. The protocol: as §1
A further data set concerns the target T1, GSK-3β (Homo sapiens, UniProt P49841).
T1 construct: purchased Promega
In words: GSK-3β kinase ADP-Glo assay. Particulars: ATP 25 μM, read-out: IC50, GSK-3β enzyme activity. The class given is biochemical. How it is done:
The effect of STCs on GSK-3β activity was determined using GSK-3β kinase enzyme (Promega, WI, USA) and ADP-Glo^TM kinase assay (Promega, USA) following the manufacturer’s protocol and reported method. The STCs were dissolved in the kinase buffer to prepare different concentrations (10, 1, 0.1, 0.01, and 0.001 μM). One microliter of the test compounds was added to each well (384 well plate), followed by the addition of 2 μL of GSK-3β kinase (1 ng), 2 μL of the GSK-3β substrate (0.4 μg), and 2 μL of the ATP (25 μM), and incubated for 60 min. Then, 5 μL of ADP-Glo^TM reagent was added and incubated further for 40 min. Then 10 μL of kinase detection reagent was added and incubated for 30 min. The luminescence was recorded using a SpectraMax®L microplate reader (Molecular Devices, San Jose, CA, USA). The IC50 (concentration of the test compound required to produce half-maximal […]) from dose-response curves using non-linear regression analysis using GraphPad Prism (9.5.0; San Diego, CA, USA) software.
A general note: In ADP-Glo the light output rises with the ADP produced.

The nature of data set [2]: Liver microsomal stability, rat. The class given is in vitro ADME. Particulars: rat liver microsomes, 1 μM (verapamil 0.5 μM). How it is done:
The liver microsomes of humans, rats, and mice were purchased from Merck (human, #M0567; rat, #M9066; mouse, #M9441). The metabolic stability of 6-shogaol and STCs (1 μM effective concentration; 5 μL) was mixed with liver microsomes (0.5 mg mL^−1; 445 μL) in a microcentrifuge tube. Verapamil (0.5 μM) was used as the positive control. The microsome and compound mixture were shaken on a plate shaker for 5 min to ensure homogeneity. NADPH (1 mM; 50 μL) was added to the mixture to start the metabolic reaction. The reaction mixture was incubated at 37 °C for 0, 3, 6, 15, 30, 45, and 60 min. The mixture (20 μL) was sampled and quenched with 180 μL of acetonitrile with internal standard (Donepezil 50 ng/mL) to terminate the metabolic reaction at each time point. Ultrapure water (80 μL) was added, and contents in the microcentrifuge tubes were centrifuged at 3800 rpm at 4 °C for 10 min. […] Each set of experiments was repeated three times in human, rat, and mouse liver microsomes. The concentration of the compounds versus time was plotted to determine the elimination rate constant (Kel). The intrinsic clearance (Clint) and half-life (t1/2) were calculated using the following equations.

A further data set relates to NRF2. In words: qPCR gene expression in Hepa1c1c-7 cells: NRF2. Particulars: 1 μM, 48 h, Hepa-1c1c7 cells. The class given is cell-based, mouse. The protocol: (§2) Hepa1c1c-7 cells were treated with STCs (1 μM) for 48 h, and the total RNA was isolated using QIAzol®lysis reagent (Qiagen, Germany). Next, cDNA was synthesised using the ReverTra Ace® qPCR RT Master Mix Kit (Toyobo Research Reagents, Osaka, Japan). Quantitative PCR was performed using THUNDERBIRD^TM Next SYBR® qPCR Mix (Toyobo Research Reagents, Osaka, Japan) in CFX96 Touch Real-Time PCR Detection System (Bio-Rad Laboratories, San Jose, CA, USA). The genes tested and the respective primers (purchased from Integrated DNA Technologies, Coralville, IA, USA) used in the study are shown in Table 1. β-actin was used as a reference gene for the normalisation of target gene expression. The 2^−ΔΔCt method was used to measure the relative expression of target genes.

The next data set deals with NQO1. In words: qPCR gene expression in Hepa1c1c-7 cells: NQO1. The class given is cell-based, mouse. Particulars: 1 μM, 48 h, Hepa-1c1c7 cells. The protocol:
as §2

Setting [3] is: 1 μM, NRF2-proficient BV-2 cells.

T1 sequence (P49841 whole entry): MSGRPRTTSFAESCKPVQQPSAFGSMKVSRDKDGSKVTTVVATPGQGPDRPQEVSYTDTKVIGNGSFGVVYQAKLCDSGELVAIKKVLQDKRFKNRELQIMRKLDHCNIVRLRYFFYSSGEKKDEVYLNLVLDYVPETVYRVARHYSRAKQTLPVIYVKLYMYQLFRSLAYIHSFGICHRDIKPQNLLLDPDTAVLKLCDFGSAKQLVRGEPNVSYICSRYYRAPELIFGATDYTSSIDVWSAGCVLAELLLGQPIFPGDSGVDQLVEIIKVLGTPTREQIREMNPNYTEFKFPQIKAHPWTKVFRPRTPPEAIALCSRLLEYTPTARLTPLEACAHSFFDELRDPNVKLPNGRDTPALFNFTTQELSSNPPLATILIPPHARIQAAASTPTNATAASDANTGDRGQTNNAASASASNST

On to `COc1cc(CCC(=O)/C=C/c2ccc([N+](=O)[O-])s2)ccc1O` [STC8, (E)-5-(4-Hydroxy-3-methoxyphenyl)-1-(5-nitrothiophen-2-yl)pent-1-en-3-one], for which, in data set [1] (Hepa-1c1c7 cells, 2.5, 5 and 10 μM), the viability at 24 h is below 90%. For the same molecule, the figures for the IL-1β level in the data set with IL-1β (NRF2-proficient BV-2 cells) and in the data set with IL-1β (NRF2-silenced BV-2 cells) were 39.93 ± 0.74 pg/mL and 77.33 ± 0.93 pg/mL, respectively. For the same molecule, the TNF-α level stood at 1751.00 ± 77.90 pg/mL in the data set on TNF-α (setting [3]) and 3130.33 ± 27.47 pg/mL in the data set on TNF-α (1 μM, NRF2-silenced BV-2 cells). Besides, at GSK-3β, the IC50 came out at 870 ± 90 nM. Also, the Clint in data set [2] is 10.57 ± 1.48 mL/min/g liver. Also, the half-life at 1 μM in data set [2] amounted to 6.88 min.
For the molecule `CCCCC/C=C/C(=O)CCc1ccc(O)c(OC)c1` [6-shogaol, reference compound], the viability at 24 h in data set [1] (Hepa-1c1c7 cells, 5 and 10 μM) was below 90%. Moreover, the “NRF2 gene expression foldchange (compared to control)” value in the data set on NRF2 stood at 1.26 ± 0.05. Also, the “NQO1 gene expression foldchange (compared to control)” value in the data set on NQO1 was found to be 1.20 ± 0.06. For the same molecule, in the data set on IL-1β (NRF2-proficient BV-2 cells), the IL-1β level was 43.30 ± 0.62 pg/mL and the inhibition at 1 µM was 53.7%. Also, in the data set with IL-1β (NRF2-silenced BV-2 cells), the IL-1β level was determined as 88.57 ± 0.55 pg/mL and the inhibition at 1 µM is 5%. Also, in the data set on TNF-α (setting [3]), the TNF-α level stood at 1734.00 ± 51.00 pg/mL. Besides, in the data set on TNF-α (1 μM, NRF2-silenced BV-2 cells), the TNF-α level was determined as 3113.00 ± 55.34 pg/mL and the “percentage of TNF-α inhibition” value is “no inhibition”. Also, the inhibition at 1 µM in the data set with TNF-α (NRF2-proficient BV-2 cells) was found to be 40.4%. Moreover, at GSK-3β, the IC50 is 420 ± 130 nM. Also, in data set [2], the Clint was 11.51 ± 1.37 mL/min/g liver and the half-life at 1 μM was found to be 6.32 min.
For `COc1cc(CCC(=O)/C=C/c2cc(-c3ccccc3)cs2)ccc1O` [STC5, (E)-5-(4-Hydroxy-3-methoxyphenyl)-1-(4-phenylthiophen-2-yl)pent-1-en-3-one], the “NRF2 gene expression foldchange (compared to control)” value in the data set on NRF2 came out at 3.21 ± 0.08. The “NQO1 gene expression foldchange (compared to control)” value in the data set on NQO1 is 2.94 ± 0.01. Moreover, in the data set with IL-1β (NRF2-silenced BV-2 cells), the IL-1β level worked out at 72.50 ± 1.32 pg/mL. Besides, the inhibition at 1 µM with IL-1β (NRF2-proficient BV-2 cells) amounted to 71.4%; with IL-1β (NRF2-silenced BV-2 cells) it was 22.3%; with TNF-α (NRF2-proficient BV-2 cells) it was 70.8%; with TNF-α (NRF2-silenced BV-2 cells) it was 17%. In addition, the TNF-α level in the data set on TNF-α (setting [3]) is recorded as 850.00 ± 77.90 pg/mL; with TNF-α (1 μM, NRF2-silenced BV-2 cells) it was 2581.00 ± 51.00 pg/mL. Also, the IC50 at GSK-3β was found to be 50 ± 1 nM. Moreover, in data set [2], the Clint came out at 7.22 ± 1.23 mL/min/g liver. Moreover, the half-life at 1 μM in data set [2] is 10.1 min.
